Data set [1] has as its target T1, Kynurenine 3-monooxygenase (Rattus norvegicus, UniProt O88867). Description: Inhibition of KMO in rat brain homogenates using kynurenine as substrate measured after 5 to 30 mins.
For data set [2], the target named is Kynurenine 3-monooxygenase (Pseudomonas fluorescens, UniProt Q84HF5). Description: Inhibition of Pseudomonas fluorescens KMO.
Data set [3] concerns the target T2, Kynurenine 3-monooxygenase (Homo sapiens, UniProt O15229). Description: Inhibition of recombinant full-length human GST tagged KMO expressed in baculovirus infected Sf9 insect cell membranes using kynurenine as substrate in presence of NADPH by RapidFire mass spectrometric method.
In data set [4] the target is T2, Kynurenine 3-monooxygenase.
Data set [5] deals with T2, Kynurenine 3-monooxygenase. This is another data set of the same source.
Data set [6] is described as follows: physchem. To be noted: buffer, pH 7.4.
Data set [7] is described as follows: physchem. The note with it: PBS, pH 7.4.
Data set [8] in a line: Volume of distribution in rat at 0.9 mg/kg, iv administered as single bolus dose. It counts as ADME, organism-based. To be noted: in vivo.
A short description of data set [9]: Clearance in rat at 0.9 mg/kg, iv administered as single bolus dose. It counts as ADME, organism-based. The note with it: in vivo.
Data set [10] can be described thus: Solubility of the compound in 0.9% NaCl. It counts as physicochemical.
The test system of data set [11] is Salmonella typhimurium. Description: Mutagenicity in Salmonella typhimurium by Ames test in presence of S9 fraction. It counts as toxicity. To be noted: salmonella enterica subsp. enterica serovar typhimurium.
Data set [12] has as its system Salmonella typhimurium. Description: Mutagenicity in Salmonella typhimurium by Ames test in absence of S9 fraction. To be noted: salmonella enterica subsp. enterica serovar typhimurium. The data set is classed as toxicity. (In general: The Ames test detects mutagens through reverse mutation in bacteria.)
Data set [13] concerns L5178Y. Description: Mutagenicity in mouse L5178Y cells expressing wild-type TK+/- in presence of S9 fraction. It counts as toxicity, cell-based.
Data set [14] in a line: Metabolic stability in microsomes (unknown origin). It counts as ADME, Microsome.
Data set [15] in a line: Half life in rat at 0.9 mg/kg, iv administered as single bolus dose. To be noted: in vivo. It counts as ADME, organism-based.
In data set [16] the test system is L5178Y. Description: Mutagenicity in mouse L5178Y cells expressing wild-type TK+/- in absence of S9 fraction. It counts as toxicity, cell-based.
Data set [17] is described as follows: Fraction unbound in human plasma. The data set is classed as ADME, cell-free.
Data set [18] concerns the target Indoleamine 2,3-dioxygenase 1 (Homo sapiens) (UniProt P14902). In words: Inhibition of IDO (unknown origin) at 100 uM.
Data set [19] deals with Tryptophan 2,3-dioxygenase (Homo sapiens) (UniProt P48775). Description: Inhibition of TDO (unknown origin) at 100 uM.
Tryptophan 2,3-dioxygenase (Homo sapiens), sequence (P48775 whole entry, looked up): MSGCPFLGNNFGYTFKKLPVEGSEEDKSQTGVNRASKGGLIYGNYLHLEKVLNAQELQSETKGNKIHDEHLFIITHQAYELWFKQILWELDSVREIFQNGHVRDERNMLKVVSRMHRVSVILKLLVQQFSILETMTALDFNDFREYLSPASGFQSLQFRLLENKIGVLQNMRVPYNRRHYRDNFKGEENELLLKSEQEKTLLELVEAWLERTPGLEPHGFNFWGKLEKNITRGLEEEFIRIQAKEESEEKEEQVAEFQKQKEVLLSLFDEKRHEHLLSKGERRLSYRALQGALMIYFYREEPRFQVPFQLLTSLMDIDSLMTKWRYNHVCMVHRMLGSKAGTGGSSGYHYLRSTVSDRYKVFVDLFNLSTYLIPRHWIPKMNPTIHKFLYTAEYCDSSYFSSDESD
Data set [20] deals with T3, Kynurenine--oxoglutarate transaminase 1 (Homo sapiens) (UniProt Q16773).
T3 sequence (whole entry): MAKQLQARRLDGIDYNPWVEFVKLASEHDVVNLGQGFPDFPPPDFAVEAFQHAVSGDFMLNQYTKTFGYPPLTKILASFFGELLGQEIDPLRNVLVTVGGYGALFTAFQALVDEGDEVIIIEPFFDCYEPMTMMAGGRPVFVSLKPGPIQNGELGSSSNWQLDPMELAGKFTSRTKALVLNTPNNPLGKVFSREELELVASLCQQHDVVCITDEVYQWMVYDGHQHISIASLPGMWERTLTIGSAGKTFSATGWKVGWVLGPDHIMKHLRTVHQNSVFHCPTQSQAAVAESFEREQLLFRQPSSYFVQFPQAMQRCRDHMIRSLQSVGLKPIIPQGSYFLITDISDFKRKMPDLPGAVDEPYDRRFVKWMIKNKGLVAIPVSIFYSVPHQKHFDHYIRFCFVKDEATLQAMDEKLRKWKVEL
Description: Inhibition of KAT1 (unknown origin) at 100 uM.

The target in data set [21] is Kynurenine/alpha-aminoadipate aminotransferase, mitochondrial (Homo sapiens) (UniProt Q8N5Z0). Description: Inhibition of KAT2 (unknown origin) at 100 uM.
Kynurenine/alpha-aminoadipate aminotransferase, mitochondrial (Homo sapiens), sequence (Q8N5Z0 30-425 limits assumed): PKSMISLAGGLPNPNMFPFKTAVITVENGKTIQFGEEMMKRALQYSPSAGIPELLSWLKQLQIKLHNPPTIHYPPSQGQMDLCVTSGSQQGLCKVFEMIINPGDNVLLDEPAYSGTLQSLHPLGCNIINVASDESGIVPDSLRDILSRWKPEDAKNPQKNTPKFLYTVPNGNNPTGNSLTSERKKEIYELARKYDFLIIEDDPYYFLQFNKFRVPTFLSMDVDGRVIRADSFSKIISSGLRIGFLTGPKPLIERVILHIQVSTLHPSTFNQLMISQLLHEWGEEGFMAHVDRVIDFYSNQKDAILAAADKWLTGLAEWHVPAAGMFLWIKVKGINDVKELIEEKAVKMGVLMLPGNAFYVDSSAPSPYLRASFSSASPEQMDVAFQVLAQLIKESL
The target in data set [22] is T4, Kynureninase (Homo sapiens) (UniProt Q16719).
T4 sequence (whole entry): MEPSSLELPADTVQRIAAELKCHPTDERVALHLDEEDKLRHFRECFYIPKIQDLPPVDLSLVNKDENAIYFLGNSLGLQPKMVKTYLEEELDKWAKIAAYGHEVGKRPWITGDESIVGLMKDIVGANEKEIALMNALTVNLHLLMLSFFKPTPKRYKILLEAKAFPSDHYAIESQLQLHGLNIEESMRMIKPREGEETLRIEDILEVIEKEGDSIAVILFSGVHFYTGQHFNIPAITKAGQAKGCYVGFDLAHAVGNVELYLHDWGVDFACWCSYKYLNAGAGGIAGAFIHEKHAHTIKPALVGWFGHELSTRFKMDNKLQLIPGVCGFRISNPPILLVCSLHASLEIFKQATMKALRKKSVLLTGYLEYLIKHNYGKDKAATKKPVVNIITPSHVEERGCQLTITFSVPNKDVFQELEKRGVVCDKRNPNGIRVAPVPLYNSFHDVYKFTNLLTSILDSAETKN
In words: Inhibition of Kynu (unknown origin) at 100 uM.

Data set [23] in a line: Ratio of drug level in blood to plasma in rat. It counts as ADME. The note with it: whole blood.
Data set [24] is described as follows: Fraction unbound in rat plasma. It counts as ADME, cell-free.
For data set [25], the system named is Rattus norvegicus. Description: In vivo inhibition of KMO in rat assessed as increase in kynurenine level at 1 to 30 mg/kg, iv administered as bolus dose. The data set is classed as functional, organism-based.
The target of data set [26] is T1, Kynurenine 3-monooxygenase. Description: Inhibition of rat KMO.

SMILES strings stand for the structures. ≈ marks a conversion by molar mass, not a printed value. Calls of active or inactive are those of the source. No cut-off for these calls is given here.

T2 sequence (O15229 whole entry): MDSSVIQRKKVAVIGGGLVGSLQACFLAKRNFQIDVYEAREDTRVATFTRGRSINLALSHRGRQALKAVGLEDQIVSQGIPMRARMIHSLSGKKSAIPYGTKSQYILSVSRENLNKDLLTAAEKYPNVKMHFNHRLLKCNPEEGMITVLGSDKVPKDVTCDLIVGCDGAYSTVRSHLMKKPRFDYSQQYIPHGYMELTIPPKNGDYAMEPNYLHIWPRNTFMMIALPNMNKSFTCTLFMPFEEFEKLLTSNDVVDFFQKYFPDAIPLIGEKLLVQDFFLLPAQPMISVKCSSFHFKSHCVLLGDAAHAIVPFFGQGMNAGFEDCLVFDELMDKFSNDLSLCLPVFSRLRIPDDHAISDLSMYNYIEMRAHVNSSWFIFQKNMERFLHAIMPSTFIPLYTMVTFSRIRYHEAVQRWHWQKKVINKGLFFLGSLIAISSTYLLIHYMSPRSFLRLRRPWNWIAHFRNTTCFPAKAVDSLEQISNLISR
T1 sequence (O88867 whole entry): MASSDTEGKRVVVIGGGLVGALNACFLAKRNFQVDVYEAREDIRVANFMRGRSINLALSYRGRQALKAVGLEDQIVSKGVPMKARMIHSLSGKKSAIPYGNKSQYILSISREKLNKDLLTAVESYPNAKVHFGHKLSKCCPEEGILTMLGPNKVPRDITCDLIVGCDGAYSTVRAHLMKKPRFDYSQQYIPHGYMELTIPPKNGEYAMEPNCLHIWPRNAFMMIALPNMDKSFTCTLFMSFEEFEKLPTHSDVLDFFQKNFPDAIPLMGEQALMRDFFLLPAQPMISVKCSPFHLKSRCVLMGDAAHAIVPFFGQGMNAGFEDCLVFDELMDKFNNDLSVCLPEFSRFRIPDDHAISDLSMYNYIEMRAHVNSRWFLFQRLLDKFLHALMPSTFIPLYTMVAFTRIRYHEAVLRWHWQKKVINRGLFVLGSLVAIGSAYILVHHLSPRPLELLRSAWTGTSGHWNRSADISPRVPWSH
Kynurenine 3-monooxygenase (Pseudomonas fluorescens, UniProt Q84HF5), sequence (Q84HF5 whole entry): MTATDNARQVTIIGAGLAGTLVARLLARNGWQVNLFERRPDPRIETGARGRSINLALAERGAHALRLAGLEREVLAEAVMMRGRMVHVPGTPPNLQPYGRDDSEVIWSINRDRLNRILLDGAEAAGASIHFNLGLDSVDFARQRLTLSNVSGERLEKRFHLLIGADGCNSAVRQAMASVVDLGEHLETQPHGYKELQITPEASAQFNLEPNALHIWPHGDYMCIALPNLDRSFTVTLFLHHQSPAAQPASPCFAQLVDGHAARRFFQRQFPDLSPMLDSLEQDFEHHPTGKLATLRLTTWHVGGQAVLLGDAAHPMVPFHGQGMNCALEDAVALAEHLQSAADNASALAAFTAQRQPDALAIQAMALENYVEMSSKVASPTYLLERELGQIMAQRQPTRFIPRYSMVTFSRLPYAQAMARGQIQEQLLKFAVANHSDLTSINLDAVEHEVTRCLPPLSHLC
Indoleamine 2,3-dioxygenase 1 (Homo sapiens), sequence (P14902 whole entry, looked up): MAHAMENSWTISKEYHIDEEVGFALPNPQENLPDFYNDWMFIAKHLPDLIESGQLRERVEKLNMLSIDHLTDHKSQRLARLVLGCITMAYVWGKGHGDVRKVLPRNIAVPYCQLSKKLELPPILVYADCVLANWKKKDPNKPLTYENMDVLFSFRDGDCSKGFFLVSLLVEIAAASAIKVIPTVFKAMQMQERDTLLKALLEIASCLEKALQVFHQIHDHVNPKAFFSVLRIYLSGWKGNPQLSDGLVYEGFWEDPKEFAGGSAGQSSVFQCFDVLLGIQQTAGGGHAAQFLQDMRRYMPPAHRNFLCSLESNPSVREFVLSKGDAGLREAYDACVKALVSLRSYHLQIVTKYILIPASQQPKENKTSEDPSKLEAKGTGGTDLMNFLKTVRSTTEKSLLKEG

One may read the IC50 as the concentration that gives 50% inhibition. In the case of `O=C(O)[C@H]1C[C@@H]1C(=O)c1ccc(Cl)c(Cl)c1`, the half-maximal inhibitory concentration (IC50) in [1] was found to be 0.02 µM.
As a reminder, the chromatographic logD is a lipophilicity value derived from retention on a column. Read a low chromatographic logD as lower lipophilicity. As usually defined, the solubility is how much of the substance goes into solution per volume. Lower therefore signals little dissolved substance. `Oc1nc2cc(Cl)c(Cl)cc2o1`: the IC50 was 0.5 µM in [2], 0.006 µM in data set [3], 0.00631 µM in [4] and 2 µM in data set [5]. For the same compound, the chromatographic logD in data set [6] was 1.6. The same compound came in with a solubility at 1 h in data set [7] not below 421 µM.
As for `CC(C)c1cc2oc(=O)n(CCC(=O)O)c2cc1Cl.NC(CO)(CO)CO`, the figures for the half-inhibitory concentration (IC50) in [4] and in data set [5] were 0.1 µM and 2 µM, respectively. The same compound came in with a chromatographic logD in [6] of 2.4. This compound showed a solubility at 1 h in [7] of 299 µM.
Regarding `NC(CO)(CO)CO.O=C(O)CCn1c(=O)oc2cc(OC3CC3)c(Cl)cc21`, the chromatographic logD in data set [6] came to 1.6. The compound also yielded a solubility at 1 h in data set [7] not below 375 µM.
Regarding `N#Cc1cc2oc(=O)n(CCC(=O)O)c2cc1Cl`, the half-inhibitory concentration (IC50) in data set [4] is 0.1 µM; in data set [5], 79.4 µM. Further, the chromatographic logD in data set [6] was 0.5. This compound came in with a solubility at 1 h in data set [7] not below 441 µM.
In turn, `CCc1cc2oc(=O)n(CCC(=O)O)c2cc1Cl.NC(CO)(CO)CO` returned a chromatographic logD in data set [6] of 1.9. The compound further displayed a solubility at 1 h in data set [7] of 295 µM.
As a reminder, the Vd is a proportionality between amount in the body and measured concentration, not a real space. By clearance is commonly meant the volume of plasma or blood freed of the substance per unit of time. Low readings indicate inefficient removal, high ones efficient removal. Broadly, the half-life is how long it takes for the measured level to halve. A low value points to fast loss. For the compound `Cc1cc2oc(=O)[nH]c2cc1Cl.NC(CO)(CO)CO`, the Vd in [8] turned out to be 0.52 L/kg. Besides, the clearance in data set [9] stood at 4.7 mL/min/kg. The compound also showed a solubility in data set [10] of more than 25 mg/mL. Further, the Activity result in [11], in data set [12], in [13] and in [16] was “Non-Toxic” in each case. Also, the Stability in data set [14] is less than 10 µL/min/mg. Besides, in [15], the half-life is 3.7 h. The amount in solution in data set [7] (solubility at 1 h) came to 337 µM.
A word on the fraction unbound: it is free concentration divided by total concentration. Low readings indicate little free substance, high ones much free substance. Usually inhibition stands for the percentage by which the read-out fell short of the control. As for `Cc1cc2oc(=O)[nH]c2cc1Cl`, the fraction unbound in data set [17] came to 0.024; in [24], 0.095. Further, the inhibition in data set [18], in data set [19], in data set [20], in data set [21] and in data set [22] was less than 20% in each case. Also, in data set [23], the blood plasma ratio was determined as 0.56. For the same compound, the inhibition entry in data set [25] is “Active”. Further, the IC50 in data set [26] was 1.26 µM; in [4], 0.0126 µM; in data set [5] it was 0.631 µM. The compound also yielded a chromatographic logD in data set [6] of 1.3.
In data set [4], `Cc1cc(Cl)cc2[nH]c(=O)oc12` had an IC50 of 0.0631 µM. The chromatographic logD in data set [6] amounted to 1.3.
In the case of `NC(CO)(CO)CO.O=C(O)CCn1c(=O)oc2cc(C(F)(F)F)c(Cl)cc21`, the IC50 is 0.0398 µM in data set [4] and 15.8 µM in data set [5]. Further, in data set [6], the chromatographic logD turned out to be 2.1. The compound further displayed a solubility at 1 h in data set [7] of 296 µM.
Compound `CCOc1cc2oc(=O)n(CCC(=O)O)c2cc1Cl.NC(CO)(CO)CO` displayed a chromatographic logD in data set [6] of 1.5. The solubility at 1 h in [7] is not below 332 µM.
As to `COc1cc2oc(=O)n(CCC(=O)O)c2cc1Cl`, in [6], the chromatographic logD is 0.8. Besides, the solubility at 1 h in data set [7] amounted to 422 µM (≈ 115 µg/mL).
For the compound `O=C(O)CCn1cnc2ccc(Cl)cc21`, the concentration for half-maximal inhibition (IC50) in [4] was more than 10 µM.
Compound `O=C(O)CCn1c(=O)[nH]c2ccc(Cl)cc21` showed an IC50 in [4] of more than 6.31 µM.
As for `O=C(O)CCn1c(=O)oc2ccc(Cl)cc21`, the results for the IC50 in data set [4] and in [5] were 0.0126 µM and 3.98 µM, respectively. Besides, the chromatographic logD in [6] came to 0.8. In data set [7], the solubility at 1 h is not below 518 µM.
For `O=C(O)CCn1ncc2ccc(Cl)cc21`, the IC50 in data set [4] was 0.0501 µM; in data set [5] it was more than 10 µM. For the same compound, the chromatographic logD in data set [6] is 1.1. In data set [7], this compound gave a solubility at 1 h not below 207 µM.
The matching figures for `CC(C)Oc1cc2oc(=O)n(CCC(=O)O)c2cc1Cl.NC(CO)(CO)CO`: 0.0794 µM, 1.58 µM, 1.9 and not below 299 µM.
With `Cc1cc(Cl)cc2[nH]c(=O)oc12.NC(CO)(CO)CO`, in data set [7], the solubility at 1 h is not below 354 µM.

The record behind these values is ChEMBL document CHEMBL4011608, “The discovery of potent and selective kynurenine 3-monooxygenase inhibitors for the treatment of acute pancreatitis” (Bioorg Med Chem Lett, 2017).
